Measurements published in US7378545B2, “Crystallization of amino acids using ultrasonic agitation” (Abbott Laboratories, priority 2002, dated 2008).

Columns and labels:
Assay type in all cases: physicochemical
[1] = Solubility of L-thyroxine in standard solution (cooling/redissolving, light probe)
Experimental: The solubility of L-thyroxine was determined by studying a standard solution of L-thyroxine.
The L-thyroxine solution was then transferred to a glass crystallizer and cooled until the L-thyroxine crystallized spontaneously. Then, the temperature of the solution was slowly raised until the crystallized L-thyroxine was redissolved. The crystallization status of the solution was determined using a light probe. The light probe was comprised of two parallel rods with a light source and a photocell. The light probe measured the amount of crystals in the solution by determining the change in the amount of light that was absorbed or scattered by the solution. In solutions with crystals, the photocells registered a weakened beam as compared to beams sent through clear solutions.
Data obtained from these experiments is plotted in FIG. 1. The solubility of L-thyroxine in the standard solution is given by black circles, interpolated by the solid line.
The temperature of saturation at standard conditions (4.84% w/w) was 42° C. […] A theoretical yield of 83% of L-thyroxine was calculated. […] At a concentration of 20% propanol or 4% sodium carbonate, the solubility of L-thyroxine at lower temperatures was not determined. Under these conditions, sodium carbonate co-precipitated with sodium L-thyroxine at around 10° C.

[2] = Parametric sensitivity of L-thyroxine crystallization, particle size (one liter glass crystallizer, no ultrasound)
Experimental: The following trials were conducted to test the effects of various parameters other than ultrasonification on the crystallization of L-thyroxine. These trials were performed in a one liter glass crystallizer equipped with three baffles and a 60 mm marine type propeller (Ne=0.4). While most trials were run with the standard solution given in Example 1, propanol concentration was varied in trials 5 and 6. The final temperature for all trials was 10° C.

[3] = Effect of ultrasonification on crystallization, particle size by Aerosizer time-of-flight (2000 W, 20 kHz sonotrode)
Text: L-thyroxine crystals were obtained by batch-wise cooling crystallization of a standard solution of L-thyroxine.
To crystallize L-thyroxine, the standard solution of L-thyroxine was heated to a specified temperature, introduced into a crystallizer and cooled at a controlled rate. As the solution cooled and L-thyroxine crystallized, the solution was exposed to ultrasonification.
A sonotrode complete with generator and transducer capable of emitting an radial ultrasonic pressure wave at a 20 kHz frequency and 2000 W of power (UIP 2000 industrial processor with block sonotrode) was mounted in the crystallizer. The L-thyroxine solution was prepared and agitated at 20 RPM. The temperature was stabilized at 50° C., and the ultrasonic generator was turned on in continuous mode and at 100% amplitude. The cooling sequence was then initiated and the temperature of the solution was lowered at 0.5° C. per minute to a final set point of 10° C. The period of time that the ultrasound was applied to the solution as it was cooling to this set point was varied. For the first trial, a controlled crystallization was allowed to occur without any application of ultrasound to the product solution. For the second trial, the ultrasound remained on until a temperature of 30° C. was reached. At this point the ultrasound was turned off while the solution continued to cool to 10° C. When 10° C. was reached, the slurry was sampled and heated back up to 50° C. to redissolve the solid. The third trial proceeded in the same manner, but when the solution reached a temperature of 26° C., the ultrasound was turned off and the solution continued to cool to 10° C. The trials continued in this manner, changing the temperature at which the ultrasound was turned off by 4° C. each time until for the last trial, the solution was sonified throughout cooling. During this last trial, ultrasound was maintained at the cooling set point for a period of one hour, with samples being pulled at the half hour and one hour mark. This slurry was then transferred to a filter dryer for filtering, washing and drying. Once the product was dry, a sample was taken to determine the additional effects on particle size of the manufacturing process downstream of the crystallizer.
Particle size analysis for all samples was performed with an Aerosizer aerodynamic time-of-flight particle-sizing instrument.
Samples for all of the trials shown in the table above were taken from the crystallizer in the slurry form. A portion of these slurry samples was filtered, washed with ethanol and dried at ambient temperature. A reduction in particle size on a volume basis was apparent between trial 1, which underwent no sonification, and trials 2-7, which underwent various periods of ultrasound application. The magnitude of this reduction is roughly three fold.

[4] = Nucleation temperature / metastable zone during cooling of L-thyroxine solutions
Text: The extent of the metastable zone depends on the rate of cooling. The lower the cooling rate, the higher the temperature at which nucleation begins.

[5] = Effect of ultrasonification intensity on crystal size (one-liter flask in ultrasonic bath, ≈40 kHz); settings: for C.V. Coefficient of variation = (X86 − X14)/(2 * X50): unit assumed
Experimental: A one-liter round bottom glass flask was filled with the standard L-thyroxine solution and cooled under stirring. The flask was then immersed in an ultrasonic bath (Sonorex Super Bandelin DK102, ≈40 kHz) to study the influence of different sonification intensities on the size of L-thyroxine crystals. The frequency and power dissipated by the bath was measured using a hydrophone. As an additional parameter, the onset point of sonification and its duration was also varied.

[6] = Effect of ultrasonification intensity on crystal size (22 L crystallizer, 24 kHz sonotrode)
Experimental: In order to verify the findings from Example 5, additional experiments were carried out in a 22 L double-jacket glass crystallizer equipped with a draft tube and a 200 mm marine type propeller (Ne=0.3). A custom-made sonotrode (24 kHz) was used along with a UIP250 sound generator. In this example, the exact sonification power was not determined, although it was estimated to be in the order of 25-50 W. The findings are illustrated in Table 7.

[7] = Degradation of L-thyroxine in crystallization solution at elevated temperature; settings: concentrations above 10% not feasible
Experimental: Concentrations of L-thyroxine above 10% were not feasible due to degradation at above 65° C.

[8] = trial 1: ultrasound off, cooled 50 to 10° C. at 0.5° C. per minute
[9] = trial 2: ultrasound on at 50° C., off at 30° C.
[10] = trial 3: ultrasound on at 50° C., off at 26° C.
[11] = trial 4: ultrasound on at 50° C., off at 22° C.
[12] = trial 5: ultrasound on at 50° C., off at 18° C.
[13] = trial 6: ultrasound on at 50° C., off at 14° C.
[14] = trial 7: ultrasound on at 50° C., off at 10° C.
[15] = trial 3: 10% US switched on at 32.5° C. (1K above expected nucleation temperature)
[16] = trial 5: 50% US switched on at 32.5° C.
[17] = trial 6: 100% US (roughly 0.18 W/cm^2)
[18] = trial 7: 100% US switched on at 32.5° C.
[19] = trial 8: 100% US switched off immediately after nucleation

In the case of N[C@@H](Cc1cc(I)c(Oc2cc(I)c(O)c(I)c2)c(I)c1)C(=O)O [L-thyroxine], the “effect of solution composition on solubility” value ([1]; higher sodium carbonate or propanol concentrations) is reported as “the inverse effect is observed”, the “effect of solution composition on solubility” value ([1]; reduction of sodium carbonate or propanol content of the initial solution) is reported as “reduces L-thyroxine solubility” and the temperature of saturation ([1]; standard solution, 4.84% w/w L-thyroxine, 14.0% n-propanol, 2.85% sodium carbonate) is reported as 42 °C. It also gave a solubility ([1]; standard solution, end of the cooling curve, 10° C.) of 0.78%, a Particle size ([2]; trial 1: cooling 20/10 K/h, 0.5 W/kg, dried 10 mbar 50° C.) of 15 μm and a Particle size ([2]; trial 1: cooling 20/10 K/h, 0.5 W/kg, dried 1013 mbar 25° C. openly in lab) of 30 μm. The Particle size ([2]; trial 2: cooling 20/10 K/h, 5 W/kg (stirrer rate increased 3x), dried 10 mbar 35° C.) was 18 μm, the Particle size ([2]; trial 3: cooling 30 K/h, 0.5 W/kg, dried 10 mbar 35° C.) was 19 μm and the Particle size ([2]; trial 4: cooling 30 K/h, 5 W/kg, dried 1013 mbar RT) was 10 μm. It also gave a Particle size ([2]; trial 5: 20% propanol, cooling 30 K/h, 5 W/kg, dried 50 mbar 35° C.) of under 20 μm, a Particle size ([2]; trial 6: 10% propanol, cooling 30 K/h, 5 W/kg, dried 50 mbar 35° C.) of over 30 μm and a Particle size ([2]; trial 7: cooling 30 K/h, 0.5 W/kg, dried 1013 mbar RT, rinsed with 90/10 EtOH/water) of 16 μm. For the same molecule, the Particle size ([2]; trial 8: cooling 30 K/h, 5 W/kg, dried 50 mbar 35° C., rinsed with 90/10 EtOH/water) was 11 μm, the Particle size ([2]; trial 9: cooling 30 K/h, 2 W/kg, dried 50 mbar 35° C., rinsed with 90/10 EtOH/water) was 13 μm and the Particle size ([2]; trial 10: as above, 1 hour stirring at final temperature) was 15 μm. The Particle size ([2]; trial 10: as above, 2 hour stirring at final temperature) was 15 μm, the Particle size ([2]; trial 10: cooling 30 K/h, 0.5 W/kg, dried 50 mbar 35° C.) was 15 μm and the Mean Particle Size (Number) [3, 8] was 3 µm. The Mean Particle Size Volume [3, 8] was 20.8 µm, the Mean Particle Size (Number) [3, 9] was 2.4 µm and the Mean Particle Size Volume [3, 9] was 6.6 µm. The Mean Particle Size (Number) [3, 10] was 2.3 µm, the Mean Particle Size Volume [3, 10] was 5.4 µm and the Mean Particle Size (Number) [3, 11] was 2.5 µm. It also gave a Mean Particle Size Volume [3, 11] of 5.7 µm, a Mean Particle Size (Number) [3, 12] of 2.4 µm and a Mean Particle Size Volume [3, 12] of 5.3 µm. It also gave a Mean Particle Size (Number) [3, 13] of 2.4 µm, a Mean Particle Size Volume [3, 13] of 5.2 µm and a Mean Particle Size (Number) [3, 14] of 3.1 µm. The Mean Particle Size Volume [3, 14] was 6.1 µm, the “reduction in particle size on a volume basis” value ([3]; trials 2-7 (ultrasound) versus trial 1 (no sonification)) was “roughly three fold” and the “metastable zone (range of supercooling)” value ([4]; aqueous solutions during cooling, depends on rate of cooling) was 5-11 °C. For the same molecule, the “increase in the temperature at which solids appeared” value ([4]; plant scale, sonified crystallizations, cooling rate 0.5° C. per minute) was 9-18 °C, the “decrease in the metastable zone” value ([4]; sonified solution, cooling rate 0.17-0.5° C. per minute) was 1-3 °C and the “Nucleation Temperature” value ([4]; trial 1: ultrasound off) was 25 °C. For the same molecule, the “Nucleation Temperature” value ([4]; trial 2: ultrasound on) was 35 °C, the “Nucleation Temperature” value ([4]; trial 3: ultrasound on) was 38 °C and the “Nucleation Temperature” value ([4]; trial 4: ultrasound on) was 38 °C. The “Nucleation Temperature” value ([4]; trial 5: ultrasound on) was 34 °C, the “Nucleation Temperature” value ([4]; trial 6: ultrasound on) was 36 °C and the “Nucleation Temperature” value ([4]; trial 7: ultrasound on) was 34 °C. The “Average Size” value ([5]; trial 1: 0% US intensity) was 46 μm, the Undercooling ([5]; trial 1: 0% US intensity) was 13.6 °C and the C.V. Coefficient of variation = (X86 − X14)/(2 * X50) ([5]; trial 1: 0% US intensity) was 74%. For the same molecule, the “Average Size” value ([5]; trial 2: 10% US) was 13 μm, the Undercooling ([5]; trial 2: 10% US) was 12.1 °C and the C.V. Coefficient of variation = (X86 − X14)/(2 * X50) ([5]; trial 2: 10% US) was 70%. The “Average Size” value [5, 15] was 11 μm, the Undercooling [5, 15] was 12.8 °C and the C.V. Coefficient of variation = (X86 − X14)/(2 * X50) ([5]; trial 3: 10% US switched on at 32.5° C.) was 84%. For the same molecule, the “Average Size” value ([5]; trial 4: 50% US) was 13 μm, the Undercooling ([5]; trial 4: 50% US) was 10.6 °C and the C.V. Coefficient of variation = (X86 − X14)/(2 * X50) ([5]; trial 4: 50% US) was 65%. The “Average Size” value [5, 16] was 11 μm, the Undercooling [5, 16] was 12.5 °C and the C.V. Coefficient of variation = (X86 − X14)/(2 * X50) [5, 16] was 69%. The “Average Size” value [5, 17] was 11 μm, the Undercooling [5, 17] was 11.9 °C and the C.V. Coefficient of variation = (X86 − X14)/(2 * X50) ([5]; trial 6: 100% US) was 61%. For the same molecule, the “Average Size” value [5, 18] was 11 μm, the Undercooling [5, 18] was 12.5 °C and the C.V. Coefficient of variation = (X86 − X14)/(2 * X50) [5, 18] was 62%. For the same molecule, the “Average Size” value [5, 19] was 22 μm, the Undercooling [5, 19] was 10.9 °C and the C.V. Coefficient of variation = (X86 − X14)/(2 * X50) [5, 19] was 74%. The “reduction of particle size” value ([6]; smallest ultrasound intensity versus no ultrasound) was 50%, the Crystal size ([6]; trial 1: No Ultrasound) was 28 μm and the Crystal size ([6]; trial 2: 10% Ultrasound) was 15 μm. For the same molecule, the Crystal size ([6]; trial 3: 100% Ultrasound) was 14 μm and the temperature of degradation [7] was “above 65 °C”.
For N[C@@H](Cc1cc(I)c(Oc2cc(I)c(O)c(I)c2)c(I)c1)C(=O)O.[Na] [sodium L-thyroxine], the “point of nucleation of the aqueous solution” value ([4]; in the absence of ultrasound) was “approximately 32 °C”.
